From ChEMBL document CHEMBL4765305, “Elephantopinolide A-P, germacrane-type sesquiterpene lactones from Elephantopus scaber induce apoptosis, autophagy and G2/M phase arrest in hepatocellular carcinoma cells” (Eur J Med Chem, 2020)
Calls of active or inactive are those of the source. The calls are words filed in the database; no cut-off is given here.

Columns and labels:
[1] = tested on: Hep 3B2; assay: Induction of apoptosis in human Hep3B cells assessed as early apoptotic cells at 6 uM incubated for 48 hrs by AnnexinV-FITC and propidium iodide staining based flow cytometry analysis (reference value: 3.05%); format: functional
[2] = tested on: Hep 3B2; assay: Anti-hepatoma activity against human Hep3B cells assessed as cell growth inhibition by MTT assay; format: functional, cell-based
[3] = tested on: HepG2; assay: Induction of autophagy in human HepG2 cells at 9 uM by MDC staining based flow cytometry analysis (reference value: 4.46%); format: functional
[4] = tested on: HepG2; assay: Anti-hepatoma activity against human HepG2 cells assessed as cell growth inhibition by MTT assay; format: functional, cell-based
[5] = tested on: HepG2; assay: Induction of apoptosis in human HepG2 cells assessed as early apoptotic cells at 9 uM incubated for 48 hrs by AnnexinV-FITC and propidium iodide staining based flow cytometry analysis (reference value: 2.45%); format: functional
[6] = tested on: Hep 3B2; assay: Induction of apoptosis in human Hep3B cells assessed as membrane blebbing upto 9 uM incubated for 48 hrs by phase contrast microscopy; format: functional, cell-based; settings: dose microM <=9, time 48.0 hrs
[7] = tested on: Hep 3B2; assay: Induction of autophagy in human Hep3B cells at 6 uM by MDC staining based flow cytometry analysis (reference value: 3.52%); format: functional
[8] = tested on: HepG2; assay: Induction of apoptosis in human HepG2 cells assessed as increase in cleaved caspase-3 activity measured by western blot analysis; format: functional, cell-based; settings: dose 3-9 µM
[9] = tested on: HepG2; assay: Induction of autophagy in human HepG2 cells at 6 uM by MDC staining based flow cytometry analysis (reference value: 4.46%); format: functional
[10] = tested on: Hep 3B2; assay: Induction ROS generation in human Hep3B cells assessed as intracellular ROS level measured after 2 hrs by H2DCF-DA probe based flow cytometry (reference value: 4.24 %); format: functional
[11] = tested on: HepG2; assay: Induction of apoptosis in human HepG2 cells assessed as cell shrinkage upto 9 uM incubated for 48 hrs by phase contrast microscopy; format: functional, cell-based; settings: dose microM <=9, time 48.0 hrs
[12] = tested on: Hep 3B2; assay: Induction ROS generation in human Hep3B cells assessed as intracellular ROS level measured after 15 mins by H2DCF-DA probe based flow cytometry (reference value: 4.24 %); format: functional; settings: 0.25 h
[13] = tested on: HepG2; assay: Induction ROS generation in human HepG2 cells assessed as intracellular ROS level measured after 15 mins by H2DCF-DA probe based flow cytometry (reference value: 5.05%); format: functional; settings: 0.25 h
[14] = tested on: Hep 3B2; assay: Induction of apoptosis in human Hep3B cells assessed as increase in caspase-3 activity measured after 2 hrs by microplate reader; format: functional, cell-based; settings: dose 3-9 µM
[15] = tested on: Hep 3B2; assay: Induction of apoptosis in human Hep3B cells assessed as cell shrinkage upto 9 uM incubated for 48 hrs by phase contrast microscopy; format: functional, cell-based; settings: dose microM <=9, time 48.0 hrs
[16] = tested on: HepG2; assay: Induction of cell cycle arrest in human HepG2 cells assessed as accumulation at G2/M phase by PI-staining based flow cytometric analysis; format: functional
[17] = tested on: Hep 3B2; assay: Induction of autophagy in human Hep3B cells at 9 uM by MDC staining based flow cytometry analysis (reference value: 3.52%); format: functional
[18] = tested on: Hep 3B2; assay: Induction of autophagy in human Hep3B cells at 3 uM by MDC staining based flow cytometry analysis (reference value: 3.52%); format: functional
[19] = tested on: HepG2; assay: Induction of autophagy in human HepG2 cells at 3 uM by MDC staining based flow cytometry analysis (reference value: 4.46%); format: functional
[20] = tested on: HepG2; assay: Induction of apoptosis in human HepG2 cells assessed as early apoptotic cells at 3 uM incubated for 48 hrs by AnnexinV-FITC and propidium iodide staining based flow cytometry analysis (reference value: 2.45%); format: functional
[21] = tested on: HepG2; assay: Induction of apoptosis in human HepG2 cells assessed as late apoptotic cells at 3 uM incubated for 48 hrs by AnnexinV-FITC and propidium iodide staining based flow cytometry analysis (reference value: 2.46%); format: functional
[22] = tested on: HepG2; assay: Induction of mitochondrial membrane potential loss in human HepG2 cells measured after 48 hrs by JC-1 staining based flow cytometry analysis; format: functional, cell-based; settings: dose 3-9 µM
[23] = tested on: HepG2; assay: Induction of apoptosis in human HepG2 cells assessed as decrease in Bcl-2 level measured by western blot analysis; format: functional, cell-based; settings: dose 3-9 µM
[24] = tested on: Hep 3B2; assay: Induction ROS generation in human Hep3B cells assessed as intracellular ROS level measured after 30 mins by H2DCF-DA probe based flow cytometry (reference value: 4.24 %); format: functional; settings: 0.5 h
[25] = tested on: Hep 3B2; assay: Induction of apoptosis in human Hep3B cells assessed as nuclear condensation at 3 to 9 uM incubated for 48 hrs by Hoechst 33258 staining based fluorescence microscopy analysis; format: functional, cell-based; settings: dose 3-9 µM
[26] = tested on: Hep 3B2; assay: Induction of mitochondrial membrane potential loss in human Hep3B cells measured after 48 hrs by JC-1 staining based flow cytometry analysis; format: functional, cell-based; settings: dose 3-9 µM
[27] = tested on: Hep 3B2; assay: Induction of apoptosis in human Hep3B cells assessed as late apoptotic cells at 3 uM incubated for 48 hrs by AnnexinV-FITC and propidium iodide staining based flow cytometry analysis (reference value: 3.32%); format: functional
[28] = tested on: Hep 3B2; assay: Induction ROS generation in human Hep3B cells assessed as intracellular ROS level measured after 4 hrs by H2DCF-DA probe based flow cytometry (reference value: 4.24 %); format: functional
[29] = tested on: HepG2; assay: Activation of JNK phosphorylation in human HepG2 cells by Western blot analysis; format: cell-based; settings: filed as activator, dose 3-9 µM
[30] = tested on: HepG2; assay: Induction ROS generation in human HepG2 cells assessed as intracellular ROS level measured after 2 hrs by H2DCF-DA probe based flow cytometry (reference value: 5.05%); format: functional
[31] = tested on: Hep 3B2; assay: Induction of apoptosis in human Hep3B cells assessed as late apoptotic cells at 6 uM incubated for 48 hrs by AnnexinV-FITC and propidium iodide staining based flow cytometry analysis (reference value: 3.32%); format: functional
[32] = tested on: HepG2; assay: Induction of apoptosis in human HepG2 cells assessed as late apoptotic cells at 9 uM incubated for 48 hrs by AnnexinV-FITC and propidium iodide staining based flow cytometry analysis (reference value: 2.46%); format: functional
[33] = tested on: HepG2; assay: Induction of apoptosis in human HepG2 cells assessed as early apoptotic cells at 6 uM incubated for 48 hrs by AnnexinV-FITC and propidium iodide staining based flow cytometry analysis (reference value: 2.45%); format: functional
[34] = tested on: HepG2; assay: Induction of apoptosis in human HepG2 cells assessed as increase in caspase-3 activity measured after 2 hrs by microplate reader; format: functional, cell-based; settings: dose 3-9 µM
[35] = tested on: Hep 3B2; assay: Induction of apoptosis in human Hep3B cells assessed as late apoptotic cells at 9 uM incubated for 48 hrs by AnnexinV-FITC and propidium iodide staining based flow cytometry analysis (reference value: 3.32%); format: functional
[36] = tested on: Hep 3B2; assay: Induction ROS generation in human Hep3B cells assessed as intracellular ROS level measured after 1 hrs by H2DCF-DA probe based flow cytometry (reference value: 4.24 %); format: functional
[37] = tested on: HepG2; assay: Induction of apoptosis in human HepG2 cells assessed as increase in FADD level measured by western blot analysis; format: functional, cell-based; settings: dose 3-9 µM
[38] = tested on: HepG2; assay: Induction ROS generation in human HepG2 cells assessed as intracellular ROS level measured after 4 hrs by H2DCF-DA probe based flow cytometry (reference value: 5.05%); format: functional
[39] = tested on: HepG2; assay: Induction of apoptosis in human HepG2 cells assessed as increase in Bax level at 3 to 9 uM measured by western blot analysis; format: functional, cell-based; settings: dose 3-9 µM
[40] = tested on: HepG2; assay: Induction of apoptosis in human HepG2 cells assessed as late apoptotic cells at 6 uM incubated for 48 hrs by AnnexinV-FITC and propidium iodide staining based flow cytometry analysis (reference value: 2.46%); format: functional
[41] = tested on: HepG2; assay: Activation of ERK phosphorylation in human HepG2 cells by Western blot analysis; format: cell-based; settings: filed as activator, dose 3-9 µM
[42] = tested on: HepG2; assay: Induction of apoptosis in human HepG2 cells assessed as nuclear condensation at 3 to 9 uM incubated for 48 hrs by Hoechst 33258 staining based fluorescence microscopy analysis; format: functional, cell-based; settings: dose 3-9 µM
[43] = tested on: HepG2; assay: Induction of apoptosis in human HepG2 cells assessed as decrease in PARP level at 3 to 9 uM measured by western blot analysis; format: functional, cell-based; settings: dose 3-9 µM
[44] = tested on: HepG2; assay: Activation of p-38 phosphorylation in human HepG2 cells by Western blot analysis; format: cell-based; settings: filed as activator, dose 3-9 µM
[45] = tested on: Hep 3B2; assay: Induction of apoptosis in human Hep3B cells assessed as early apoptotic cells at 9 uM incubated for 48 hrs by AnnexinV-FITC and propidium iodide staining based flow cytometry analysis (reference value: 3.05%); format: functional
[46] = tested on: Hep 3B2; assay: Induction of apoptosis in human Hep3B cells assessed as early apoptotic cells at 3 uM incubated for 48 hrs by AnnexinV-FITC and propidium iodide staining based flow cytometry analysis (reference value: 3.05%); format: functional
[47] = tested on: Hep 3B2; assay: Induction of apoptosis in human Hep3B cells assessed as nuclear fragmentation at 3 to 9 uM incubated for 48 hrs by Hoechst 33258 staining based fluorescence microscopy analysis; format: functional, cell-based; settings: dose 3-9 µM
[48] = tested on: HepG2; assay: Induction of apoptosis in human HepG2 cells assessed as membrane blebbing upto 9 uM incubated for 48 hrs by phase contrast microscopy; format: functional, cell-based; settings: dose microM <=9, time 48.0 hrs
[49] = tested on: HepG2; assay: Induction of apoptosis in human HepG2 cells assessed as nuclear fragmentation at 3 to 9 uM incubated for 48 hrs by Hoechst 33258 staining based fluorescence microscopy analysis; format: functional, cell-based; settings: dose 3-9 µM
[50] = tested on: Hep 3B2; assay: Induction of cell cycle arrest in human Hep3B cells assessed as accumulation at G2/M phase by PI-staining based flow cytometric analysis; format: functional
[51] = tested on: HepG2; assay: Induction ROS generation in human HepG2 cells assessed as intracellular ROS level measured after 30 mins by H2DCF-DA probe based flow cytometry (reference value: 5.05%); format: functional; settings: 0.5 h
[52] = tested on: HepG2; assay: Induction ROS generation in human HepG2 cells assessed as intracellular ROS level measured after 1 hrs by H2DCF-DA probe based flow cytometry (reference value: 5.05%); format: functional

What does the source list for C=C(C)C(=O)O[C@H]1CC2=C[C@@H](C[C@@]3(C)O[C@H]3[C@H]3OC(=O)C(=C)[C@@H]31)OC2=O?
Activity [1]: 18.2%; IC50 [2]: 1980 nM; Activity [3]: 65.9%; IC50 [4]: 2830 nM; Activity [5]: 37.8%; Activity [6]: Active; Activity [7]: 39.2%; Activity [8]: Dose-dependent effect; Activity [9]: 28.2%; Activity [10]: 7.42%; Activity [11]: Active; Activity [12]: 19.5%; Activity [13]: 19.9%; Activity [14]: Dose-dependent effect; Activity [15]: Active; Activity [16]: Active; Activity [17]: 69.6%; Activity [18]: 15.7%; Activity [19]: 9.52%; Activity [20]: 14.9%; Activity [21]: 4.56%; Activity [22]: Dose-dependent effect; Activity [23]: Dose-dependent effect; Activity [24]: 22.8%; Activity [25]: Active; Activity [26]: Dose-dependent effect; Activity [27]: 5.56%; Activity [28]: 5.04%; Activity [29]: Dose-dependent effect; Activity [30]: 13.1%; Activity [31]: 11.9%; Activity [32]: 29.1%; Activity [33]: 33.7%; Activity [34]: Dose-dependent effect; Activity [35]: 31.9%; Activity [36]: 9.85%; Activity [37]: Dose-dependent effect; Activity [38]: 6.58%; Activity [39]: Active; Activity [40]: 13.2%; Activity [41]: Dose-dependent effect; Activity [42]: Active; Activity [43]: Active; Activity [44]: Dose-dependent effect; Activity [45]: 15.5%; Activity [46]: 5.14%; Activity [47]: Active; Activity [48]: Active; Activity [49]: Active; Activity [50]: Active; Activity [51]: 28.9%; Activity [52]: 14.6%

What does the source list for C/C=C(\C)C(=O)O[C@H]1CC2=C[C@@H](C/C(C)=C/[C@H]3OC(=O)C(CO)=C13)OC2=O?
IC50 [2]: > 20000 nM; IC50 [4]: > 20000 nM
